How the values were obtained:
CpomOrco + OR3 = target: T1, CpomOrco + OR3 (Cydia pomonella, UniProt H9A5M3); assay: Calcium imaging of HEK293T cells expressing CpomOrco + OR3; type: cell-based
T1 sequence (H9A5M3 1-426): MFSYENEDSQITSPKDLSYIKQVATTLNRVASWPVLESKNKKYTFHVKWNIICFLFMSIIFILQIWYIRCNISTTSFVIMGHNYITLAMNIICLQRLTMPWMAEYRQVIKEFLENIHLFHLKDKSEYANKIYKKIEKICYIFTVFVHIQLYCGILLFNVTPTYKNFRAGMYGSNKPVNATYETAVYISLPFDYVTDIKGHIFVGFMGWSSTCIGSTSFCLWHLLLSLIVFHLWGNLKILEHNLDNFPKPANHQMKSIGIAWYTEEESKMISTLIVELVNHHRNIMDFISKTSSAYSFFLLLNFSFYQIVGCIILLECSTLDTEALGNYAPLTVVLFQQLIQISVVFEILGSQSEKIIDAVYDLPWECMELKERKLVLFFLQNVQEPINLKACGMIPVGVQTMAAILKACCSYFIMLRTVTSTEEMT
T1 sequence (H9A5M2 1-473 partner): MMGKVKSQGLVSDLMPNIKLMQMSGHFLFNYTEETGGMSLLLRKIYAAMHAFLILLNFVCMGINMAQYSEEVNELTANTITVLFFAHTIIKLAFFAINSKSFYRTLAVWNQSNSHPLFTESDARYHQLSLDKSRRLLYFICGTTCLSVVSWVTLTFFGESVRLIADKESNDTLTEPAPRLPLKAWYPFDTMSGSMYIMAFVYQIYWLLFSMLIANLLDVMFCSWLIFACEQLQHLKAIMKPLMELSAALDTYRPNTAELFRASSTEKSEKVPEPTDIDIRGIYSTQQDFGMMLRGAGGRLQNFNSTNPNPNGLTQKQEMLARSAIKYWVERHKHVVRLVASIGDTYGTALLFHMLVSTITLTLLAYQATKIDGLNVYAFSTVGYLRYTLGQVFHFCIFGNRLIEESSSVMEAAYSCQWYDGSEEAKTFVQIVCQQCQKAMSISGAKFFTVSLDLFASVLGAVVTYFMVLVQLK
Method: HEK293T cells were grown in HEK cell media [Dulbecco’s modified Eagle’s medium containing 10% fetal bovine serum (MP Biomedicals, Solon, OH, USA), 2.0 mM L-glutamine, and 100 μg/mL Penicillin/Streptomycin (Invitrogen)] at 37 °C and 5% CO2. To test transient expression of CpomORs for calcium imaging or patch-clamp recording experiments, 35-mm petri dishes containing semi-confluent HEK293T cells were transiently transfected. To transfect cells with CpomOrco, we used 1.0 μg of pcDNA5/TO/CpomOrco DNA. In order to promote expression of the OR[51], we used double aliquots for pcDNA5/TO/CpomOR DNAs (2.0 μg), combined with 1.0 μg of pcDNA5/TO/CpomOrco for co-transfections (CpomOrco + ORs). […] In order to report candidate OR-expressing cells, expression of both fluorescent reporter genes was under the regulation of the same promoter for CpomOR genes (CMV). Transfection DNAs were dissolved in 100 μL sterile DMEM, mixed with 3.0 μL Calfectin (SignaGen, Rockville, MD, USA) following the recommended protocol.
Transfections were conducted overnight. HEK cell media was replaced with 1.0 mL fresh media to incubate cells at 37 °C for up to 6 h, at which point part of the cell culture was spread in the middle of a 35-mm plate as individual cells or small clusters. After 12 h of incubation at 37 °C and 5% CO2, cells were rinsed at the sides with 2.0 mL fresh HEK media. Cells were allowed to recover for at least 1 h prior to calcium imaging.
After incubation, the buffer was removed and cells were rinsed with 4.0 mL fresh HEK Ca^++ Ringer (mM: 140 NaCl, 2.0 CaCl2, 10 HEPES, pH 7.5), and placed on the stage of an inverted microscope (Olympus IX-71, Olympus Corp., Tokyo, Japan) equipped with a cooled CCD camera (ORCA R2, Hamamatsu, Hamamatsu City, Japan). Cells were continuously superfused with Ca^++ Ringer using two gravity fed perfusion contours. The stimulating contour washing the cells (~250 μL/min) was switched rapidly to the stimulus contour using a multi-channel rapid solution changer (RSC-160, Bio-Logic, Claix, France) under the software control of Clampex 9 (Molecular Devices, Sunnyvale, CA, USA).
Fluorescence imaging was performed using Imaging Workbench 6 software (INDEC BioSystems, Santa Clara, CA, USA). Each cell was assigned a region of interest (ROI) and changes in fluorescence intensity within each ROI were measured and expressed as the fractional change in fluorescence intensity (dF) or in some cases as dF/F0 where F0 is the basal fluorescence level before agonist application. […] Continuous traces of multiple responses were compensated for slow drift of the baseline fluorescence when necessary. All recordings were performed at room temperature (22–25 °C).
Compounds were diluted in either DMSO or ethanol (Sigma Aldrich) depending on their solubility properties. […]

CpomOR6a = assay: Single sensillum recordings, CpomOR6a expressed in Drosophila at1 OSNs; type: cell-based, Cydia pomonella; details: 10 μg per stimulus
Source text: (§1) To perform heterologous expression in D. melanogaster OSNs, CpomORs were amplified using primers in Table 2 and purified PCR products were cloned into the PCR8/GW/TOPO plasmid (Invitrogen) following the recommended protocol. Cassettes with inserts were then transferred from their PCR8/GW/TOPO plasmids to the destination vector (pUASg-HA.attB, constructed by E. Furger and J. Bischof, kindly provided by the Basler group, Zürich), using the Gateway LR Clonase II kit (Invitrogen). The integrity and orientation of inserts was confirmed by sequencing (Sanger sequencer, 3730xl). Transformant UAS-CpomOR3 and UAS-CpomOR1 lines were generated by Best Gene (Chino Hills, CA, USA), using the PhiC31 integrase system, while the transformant UAS-CpomOR6a line was generated in our labs. Briefly, recombinant pUASg-HA.attB-CpomOR plasmids were injected into embryos of a D. melanogaster line containing an attP insertion site within the third chromosome (genotype y1 M{vas-int.Dm}ZH-2A w*; M{3xP3-RFP.attP}ZH-86Fb), leading to non-random integration. To drive expression of CpomORs in at1 OSNs in place of the endogenous receptor Or67d, transformant UAS-CpomOR lines were crossed to the knock-in Or67d^GAL4 line (kindly provided by Barry Dickson) to generate double homozygous lines w^+;UAS-CpomOR; Or67d^GAL4. Additionally, to drive expression of CpomOR3 in ab3A OSNs, the UAS-CpomOR3 line was crossed to the Δhalo;Or22a-Gal4 mutant line[20][57]. To verify insertion of UAS-CpomORs constructs into the genome, gDNA was extracted and used as template in PCR with primers for the full ORF of CpomORs (Table 2).
(§2) CpomOR1 and CpomOR6a expressed in at1 OSNs, and CpomOR3 expressed in ab3A OSNs, were tested through single sensillum recordings (SSR). Three to 8-day-old flies were immobilized in 100 μL pipette tips with only the top half of the head protruding. The left antenna of each insect was gently pushed with a glass capillary against a double-sided adhesive tape placed on a piece of glass. This piece of glass and the pipette tip were fixed with dental wax on a microscope slide. Electrolytically sharpened tungsten electrodes (Harvard Apparatus Ltd, Edenbridge, United Kingdom) were used to penetrate the insect´s body. The reference electrode was manually inserted in the right eye of the fly, while the recording electrode was manoeuvred with a DC-3K micromanipulator equipped with a PM-10 piezo translator (Märzhäuser Wetzler GmbH, Wetzler, Germany) and inserted at the base of the determined sensilla. Signals coming from the olfactory sensory neurons were amplified 10 times with a probe (INR-02, Syntech, Hilversum, the Netherlands), digitally converted through an IDAC-4-USB (Syntech) interface, and visualized and analysed with the software Autospike v. 3.4 (Syntech). A constant flow of 0.65 m/s of humidified air (charcoal-filtered) was delivered through a glass tube to the antenna. The panel of odorants was given to the insect by inserting pipettes containing a piece of filter paper with the correspondent stimulus in a lateral hole of the glass tube and puffing a flow of 2.5 mL of air during 0.5 s through the pipette. For CpomOR1 and CpomOR6a the panel of odorants was prepared by applying 10 μL of a solution of 1.0 μg/μL of the compounds in Supplementary Dataset S2 and Supplementary Dataset S3, for a total amount of 10 μg per stimulus. In the case of CpomOR3, a similar dilution process was used for the dose response experiments of ethyl-(E,Z)-2,4-decadienoate and methyl-(E,Z)-2,4-decadienoate, as well for dose response of experiments of codlemone acetate in CpomOR6a. Compounds were diluted from concentrations ranging from 0.01 ng/μL to 10 μg/μL in decadic steps, allowing reaching concentrations from 100 pg to 100 μg per stimulus when 10 μL of the dilution was applied in the piece of filter paper. […]

CpomOR3 = assay: Single sensillum recordings, CpomOR3 expressed in Drosophila ab3A OSNs; type: cell-based, Cydia pomonella; details: dose loaded in the stimulus cartridge
Source text: To perform heterologous expression in D. melanogaster OSNs, CpomORs were amplified using primers in Table 2 and purified PCR products were cloned into the PCR8/GW/TOPO plasmid (Invitrogen) following the recommended protocol. Cassettes with inserts were then transferred from their PCR8/GW/TOPO plasmids to the destination vector (pUASg-HA.attB, constructed by E. Furger and J. Bischof, kindly provided by the Basler group, Zürich), using the Gateway LR Clonase II kit (Invitrogen). The integrity and orientation of inserts was confirmed by sequencing (Sanger sequencer, 3730xl). […]
CpomOR1 and CpomOR6a expressed in at1 OSNs, and CpomOR3 expressed in ab3A OSNs, were tested through single sensillum recordings (SSR). […] The reference electrode was manually inserted in the right eye of the fly, while the recording electrode was manoeuvred with a DC-3K micromanipulator equipped with a PM-10 piezo translator (Märzhäuser Wetzler GmbH, Wetzler, Germany) and inserted at the base of the determined sensilla. Signals coming from the olfactory sensory neurons were amplified 10 times with a probe (INR-02, Syntech, Hilversum, the Netherlands), digitally converted through an IDAC-4-USB (Syntech) interface, and visualized and analysed with the software Autospike v. […]

CpomOR1 = assay: Single sensillum recordings, CpomOR1 expressed in Drosophila at1 OSNs; type: cell-based, Cydia pomonella; details: 10 μg per stimulus
Source text: as §1, §2

Compound: CCCCC/C=C\C=C\C(=O)OCC [(E,Z)-ED, ethyl-(E,Z)-2,4-decadienoate]
- amplitude of the calcium response (mean of the maximum response ± SEM) (CpomOrco + OR3; 500 μM, n = 151): 15.07 ± 9.48 dF
- EC50 (CpomOrco + OR3; calcium response normalized to 250 μM VUAA3): 454 ± 120 µM
- Spike/s (CpomOR6a; replicate 1): 2 Spike/s
- Spike/s (CpomOR6a; replicate 2): -2 Spike/s
- Spike/s (CpomOR6a; replicate 3): 8 Spike/s
- Spike/s (CpomOR6a; replicate 4): 2 Spike/s
- Spike/s (CpomOR6a; replicate 5): -14 Spike/s
- Spike/s (CpomOR6a; replicate 6): 8 Spike/s
- Spike/s (CpomOR6a; replicate 7): 4 Spike/s
- Spike/s (CpomOR6a; replicate 8): -2 Spike/s
- Spike/s (CpomOR6a; replicate 9): 14 Spike/s
- minimum dose to elicit a response significantly different from the solvent (CpomOR3): 100 ng
- Spikes/s (CpomOR1; replicate 1): -2 Spikes/s
- Spikes/s (CpomOR1; replicate 2): 2 Spikes/s
- Spikes/s (CpomOR1; replicate 3): 2 Spikes/s
- Spikes/s (CpomOR1; replicate 4): 2 Spikes/s
- Spikes/s (CpomOR1; replicate 5): 10 Spikes/s

Source: article PMC5259778, “Candidate pheromone receptors of codling moth Cydia pomonella respond to pheromones and kairomones” (Scientific Reports, 2017)
